Test results as given in patent US20150218164A1, “SUBSTITUTED NAPHTHYRIDINEDIONE DERIVATIVES AS HIV INTEGRASE INHIBITORS” (MERCK SHARP & DOHME CORP., priority 2012, published 2015).

Each compound was assayed on HIV-1 (NL4-3 strain) (assay: Assay for inhibition of HIV replication (MT4-gag-GFP reporter cells, wild type cell assay)). Settings: 50% NHS; MT4-GFP cells infected with HIV-1 NL4-3; infected cells at 48 h / 24 h; read-out: Wild Type Cell Assay IP (% NHS).
Format: cell-based
Protocol: This assay is a kinetic assay that employs a reporter cell line (MT4-gag-GFP) to quantify the number of new cells infected in each round of replication. Briefly, MT4-GFP cells (250,000 cells/ml) were bulk-infected with HIV-1 (NL4-3 strain) at low multiplicity of infection (MOI) in RPMI+10% FBS for 24 hours. Cells were then washed once in RPMI+10% FBS and resuspended RPMI+10% or 50% normal human serum (NHS). Test compounds were serial-diluted in DMSO on ECHO. The infected MT4-GFP cells were added to a 384-well poly-D-lysine coated black plate with clear bottom in which the diluted test compounds were placed. The cells were seeded at 8,000 cells per well and the final DMSO concentration was 0.4%. The infected cells (Green GFP cells) were quantified at both 24 and 48 hours post incubation using Acumen eX3. Viral reproductive ratio (R0) was determined using the number of infected cells at 48 hours divided by the number of infected cells at 24 hours. Percent viral growth inhibition was calculated by [1−(R−Rtripledrug)/(RDMSO−Rtripledrug)]*100. Compound potency IP or IC50 was determined by a 4-parameter dose response curve analysis.

IC50 [µM] | Compound
0.028 | CSCC12CC1CCC21NC(=O)c2c3c(c(O)c(=O)n21)C(=O)N(Cc1ccc(F)c(Cl)c1)CC3 (stereo not shown) [Compound 17]

Same assay, conditions: Human immunodeficiency virus 1, NL43, 10% NHS; MT4-GFP cells infected with HIV-1 NL4-3; infected cells at 48 h / 24 h; read-out: Wild Type Cell Assay IP (% NHS)

IC50 [µM] | Compound
0.0075 | O=C1c2c(c3n(c(=O)c2O)[C@@]2(CC[C@H]4C[C@H]42)N(CC(O)CF)C3=O)CCN1Cc1ccc(F)c(Cl)c1 (single isomer, unassigned) [Compound 4]
0.027 | O=C1c2c(c3n(c(=O)c2O)[C@@]2(CC[C@H]4C[C@H]42)N(CC(F)CO)C3=O)CCN1Cc1ccc(F)c(Cl)c1 (single isomer, unassigned) [Compound 5]

Same assay, conditions: Human immunodeficiency virus 1, NL43, 50% NHS; MT4-GFP cells infected with HIV-1 NL4-3; infected cells at 48 h / 24 h; read-out: Wild Type Cell Assay IP (% NHS)

Compound | IC50 [µM]
C[C@@H](O)CN1C(=O)c2c3c(c(O)c(=O)n2[C@@]12CC[C@H]1C[C@H]12)C(=O)N(Cc1ccc(F)c(Cl)c1)CC3 (single isomer, unassigned) [Compound 2] | 0.033
CC(O)CCN1C(=O)c2c3c(c(O)c(=O)n2[C@@]12CC[C@H]1C[C@H]12)C(=O)N(Cc1ccc(F)c(Cl)c1)CC3 (single isomer, unassigned) [Compound 3] | 0.032
C[C@H](O)CN1C(=O)c2c3c(c(O)c(=O)n2[C@@]12CC[C@H]1C[C@H]12)C(=O)N(Cc1ccc(F)c(Cl)c1)CC3 (single isomer, unassigned) [Compound 6] | 0.053
C[C@@H](CN1C(=O)c2c3c(c(O)c(=O)n2[C@@]12CC[C@H]1C[C@H]12)C(=O)N(Cc1ccc(F)c(Cl)c1)CC3)OP(=O)(O)O [Compound 1] | 1.2
C[C@H](CN1C(=O)c2c3c(c(O)c(=O)n2[C@@]12CC[C@H]1C[C@H]12)C(=O)N(Cc1ccc(F)c(Cl)c1)CC3)OP(=O)(O)O [Compound 7] | 1.09
C[C@@H](CN1C(=O)c2c3c(c(O)c(=O)n2[C@@]12CC[C@H]1C[C@H]12)C(=O)N(Cc1ccc(F)c(Cl)c1)CC3)OC(=O)[C@@H](N)CCCCN [Compound 8] | 0.046
C[C@H](N)C(=O)O[C@@H](C)CN1C(=O)c2c3c(c(O)c(=O)n2[C@@]12CC[C@H]1C[C@H]12)C(=O)N(Cc1ccc(F)c(Cl)c1)CC3 [Compound 9] | 0.042
CC(C)C[C@H](N)C(=O)O[C@@H](C)CN1C(=O)c2c3c(c(O)c(=O)n2[C@@]12CC[C@H]1C[C@H]12)C(=O)N(Cc1ccc(F)c(Cl)c1)CC3 [Compound 10] | 0.049
CSCC[C@H](N)C(=O)O[C@@H](C)CN1C(=O)c2c3c(c(O)c(=O)n2[C@@]12CC[C@H]1C[C@H]12)C(=O)N(Cc1ccc(F)c(Cl)c1)CC3 [Compound 11] | 0.071
CC(C)[C@H](N)C(=O)O[C@@H](C)CN1C(=O)c2c3c(c(O)c(=O)n2[C@@]12CC[C@H]1C[C@H]12)C(=O)N(Cc1ccc(F)c(Cl)c1)CC3 [Compound 12] | 0.054
C[C@@H](CN1C(=O)c2c3c(c(O)c(=O)n2[C@@]12CC[C@H]1C[C@H]12)C(=O)N(Cc1ccc(F)c(Cl)c1)CC3)OC(=O)CN(C)C [Compound 13] | 0.069

Next, values leading:

IC50 [µM] | Compound
2.09 | CN1C(=O)c2c3c(c(O)c(=O)n2[C@]12CC[C@@H]1C[C@@]12COP(=O)(O)O)C(=O)N(Cc1ccc(F)c(Cl)c1)CC3 (single isomer, unassigned) [Compound 19]
0.014 | CN1C(=O)c2c3c(c(O)c(=O)n2[C@@]12CC[C@@H]1C[C@@]12CO)C(=O)N(Cc1ccc(F)c(Cl)c1)CC3 [Compound 14]
0.024 | CN1C(=O)c2c3c(c(O)c(=O)n2[C@]12CC[C@@H]1C[C@@]12CO)C(=O)N(Cc1ccc(F)c(Cl)c1)CC3 [Compound 15]
0.02 | CSCC12CC1CCC21NC(=O)c2c3c(c(O)c(=O)n21)C(=O)N(Cc1ccc(F)c(Cl)c1)CC3 (stereo not shown) [Compound 16]
0.037 | CS(=O)(=O)CC12CC1CCC21NC(=O)c2c3c(c(O)c(=O)n21)C(=O)N(Cc1ccc(F)c(Cl)c1)CC3 (stereo not shown) [Compound 18]
